# Earlier results, collected in patent US20210113495A1, “METHOD OF TREATING EPILEPSY OR EPILEPTIC ENCEPHALOPATHY WITH FENFLURAMINE IN PATIENTS WITHOUT PULMONARY HYPERTENSION” (ZOGENIX INTERNATIONAL LIMITED, priority 2018, published 2021).
# Experiments:
# [1] = test system: child suffering pattern sensitivity-induced seizures; details: one child, seizures resistant to anticonvulsive treatment
# [2] = test system: self-induced photosensitive seizures; details: four cases
# [3] = test system: children with refractory epilepsy; details: dose of 0.5 to 1 mg/kg/day
# patients with PH [4] = test system: patients with PH
# [5] = test system: pulmonary arterial hypertension patients; details: PAH patients who had started treatment with bosentan
# patients with PH [6] = details: short-term infusion
# [7] = initial right heart catheterization, resting, 15 women who had used fenfluramine, mean (SD)
compound,measurement,setting,value
"CCNC(C)Cc1cccc(C(F)(F)F)c1 (racemic) [fenfluramine, (RS)—N-ethyl-1-[3-(trifluoromethyl)phenyl]propan-2-amine]",effect on self-induced seizures,[1],successfully terminated these self-induced seizures
same,response of self-induced photosensitive seizures,[2],responded to treatment with fenfluramine
same,number of seizures experienced by the patients,[3],reduction in the number of seizures
same,users with close temporal relation between fenfluramine use and development of exertional dyspnoea,patients with PH [4]; 10 of 15 women with PH who had used fenfluramine,67%
same,"overall survival, fenfluramine users vs controls","patients with PH [4]; PH patients, transplant recipients excluded",no significant difference in overall survival
same,pulmonary artery pressure (PAP),patients with PH [4]; [7],57 (9) mm Hg
same,pulmonary vascular resistance (PVR),patients with PH [4]; [7],29 (10) U/m^2
COc1ccccc1Oc1c(NS(=O)(=O)c2ccc(C(C)(C)C)cc2)nc(-c2ncccn2)nc1OCCO [bosentan],patients alive at 2 years,[5],89%
CCCCC[C@H](O)/C=C/[C@@H]1[C@H]2C/C(=C/CCCC(=O)O)O[C@H]2C[C@H]1O [epoprostenol],mean fall in PVR compared with control values,"patients with PH [6]; 10 responding patients, mean (SD)",24 (15%)
same,vasodilator response,patients with PH [6]; 15 women with PH who had used fenfluramine,significant vasodilator response in 10 patients
